How the values were obtained:
Assay type in all cases: cell-based, human
Hsp70 [1] = test: Hsp70 induction in tumor and non-tumor cells (Western blot); details: 0.5 μM, 15 hours; MDA-MB-435 vs HMEC and HRE cells
Method: MDA-MB-435, human mammary epithelial (HMEC) […] (see Ross et al., “Systematic variation in gene expression patterns in human cancer cell lines,” Nat. Genet. (2000). 24(3):227-3.), and human renal epithelial (HRE) cells were seeded in 100 mm tissue culture plates at 1.5×10^6 cells/plate and incubated at 37° C. with 5% CO2 for several hours. […] After treatment the cells were lysized and used for Western blot analysis.
(§1) Samples were run on a SDS-PAGE gel and proteins were transferred onto a nitrocellulose membrane. Nitrocellulose was blocked with 5% skim milk in TBS with 0.5% Tween at room temperature for 1 hour and then probed with anti-Hsp70 (mouse IgG, sc-24, Santa Cruz) antibody. The nitrocellulose was then probed with secondary antibodies, HRP-conjugated goat anti-rabbit IgG and HRP-conjugated horse anti-mouse IgG (#7074, #7076, Cell Signaling). LumiGLO reagent, 20× Peroxide (#7003, Cell Signaling) was used to visualize gel (see FIG. 25).

MDA-MB-435 cells = test: Lysis of target cells by mouse splenocytes (MTS assay); details: 0.1 or 0.5 μM, about 15 hours, splenocytes 10:1, 24 hours
Method: MDA-MB-435 cells were purchased from American Type culture collection. Human mammary epithelial (HMEC), human renal epithelial (HRE) cells and medium for maintaining the cells were obtained from Cambrex Bioproducts. Mouse splenocytes were isolated form CD1 nude mice (Jackson Lab). […] Mouse splenocytes were isolated from Nude mice and mixed with MDA-MB-435, HMEC and HRE cells at ratio of 10:1. The mixed cells were incubated at 37° C. for 24 hours in the tissue culture medium and MTS assay was performed to measure viability of the cells with an ELISA reader (DYNEX Technologies). Cytotoxicity (C) was calculated based on an equation below: C=[1-([…])]×100%

[2] = test system: Hs294T (or MDA-MB-435) cells; test: Affymetrix transcriptional profiling; details: 100 nM, 6 hours
Method: RNA was isolated from the cells 6 hours after treatment using the RNeasy kit according to the manufacturers instructions (Qiagen Cat. # 71404) and RNA quality was confirmed by spectrophotometric examination. cDNA was synthesized using the One-Cycle cDNA Synthesis Kit (Affymetrix Cat. # 900431) according to the manufacturers instructions. cDNA was labeled using the GeneChip IVT Labeling Kit (Affymetrix Cat. #900449) and analyzed in duplicate on the Affymetrix Human Genome U133Plus 2.0 gene chip array according to standard Affymetrix protocols. Data sheets from the Affymetrix Gene Chip Scanner 3000 were imported into Microsoft Excel and filtered by the following criteria: greater than or equal to 1.5 fold increase, greater than or equal to 0.4SE between replicates; and 50 (low stringency) or 500 (high stringency) for the lowest signal.
NAC is the rate-limiting amino acid for the production of the antioxidant glutathione. Addition of NAC to cells increases the levels of endogenous glutathione which in turn blocks oxidative stress and ROS generation. […] RNA was isolated from the cells 6 hours after treatment and Affymetrix analysis was performed as above.

Hsp70 [3] = test: Cell surface expression of Hsp70, HT29 cells (confocal microscopy); details: HT29, 500 nM, 6 hrs
Method: After treatment, cells were rinsed one time in PBS then fixed in 2% Paraformaldehyde at room temperature for 20 minutes. Slides with the fixed cells were rinsed with PBS two times. Primary antibody mouse monoclonal anti-Hsp70 (Stressgen SPA-8 10) was diluted 1:100 in PBS and the slides were incubated 1 hour at 37° C. The slides were rinsed two times with PBS. Secondary antibody anti-mouse AlexaFluor 488 (Molecular Probes A-11001) was diluted 1:500 in PBS and the slides were incubated 30 min at 37° C. The slides were rinsed two times in PBS. DAPI (Molecular Probes D-3571) were diluted 1:10,000 in PBS and the slides were incubated at room temperature in dark for 5 min. The slides were rinsed two times in PBS, then once in deionized water and left to dry in dark until almost completely dry. Coverslips were mounted with Prolong Anti-fade Mounting Media (Molecular Probes P-748 1). The images were captured with a monochrome CCD camera SenSys (see FIGS. 27A-D and 28A-D) or by confocal microscopy (see FIG. 29A-E). In FIGS. 27A-D and 28A-D, the bright pink color on the surface of the MCF-7 cells (FIG. 27A-D) or CEM cells (FIG. 28A-D) indicates Hsp70 on the surface of the cells. In FIG. 29A-E the bright green color on the surface of the cell indicates Hsp70 on the surface of the HT29 cells.

Hsp70 [4] = test: Hsp70 RNA induction, quantitative PCR, Hs294T cells; details: 100 nM
Method: […] 500 ng of RNA from each sample was used for cDNA synthesis using iScript cDNA Synthesis Kit (Biorad, Cat# 170-8891). 1 uL of cDNA mixture was used with the iQ SYBR Green Supermix (Biorad, Cat# 170-8882) to perform quantitative PCR in an iCycler machine (Biorad) using standard protocols. QPCR for each sample/time point was performed in duplicate. The following primers for inducible human Hsp70 and gapdh were used:
Ct values were obtained from the iCycler program and used in an equation (2^−ΔΔCT) for determining the amount of target relative to gapdh expression. This compares the relative expression of Hsp70 to the corresponding levels of gapdh in each sample. Duplicate wells were averaged and graphed with their corresponding standard deviation.
Activation of HSF-1 by oxidative stress has been reported in the literature to require p38 kinase signaling in some cell lines.

MSK1 = MSK1 phosphorylation, Western blot, MDA-MB-435 cells; details: 10, 50, 100, 500 or 1000 nM, 4 hours
Method: After treatment the cells were lysized and used for Western blot analysis.
as §1, with “membrane by a semi-dry transfer.” for “membrane.”, “anti-p-MSK1 (Thr581) (#9595, Cell Signaling)” for “anti-Hsp70 (mouse IgG, sc-24, Santa Cruz)”, “36).” for “25).”
Samples were run on a SDS-PAGE gel and proteins were transferred onto a nitrocellulose membrane by a semi-dry transfer. Nitrocellulose was blocked with 5% skim milk in TBS with 0.5% Tween at room temperature for 1 hour and then probed with anti-p-MSK1 (Thr581) (#9595, Cell Signaling) antibody. Tubulin was used as a normalization control and was probed with Anti-Tubulin (T9026, Sigma) antibody.

## CN(NC(=O)CC(=O)NN(C)C(=S)c1ccccc1)C(=S)c1ccccc1 [Compound 1]
Hsp70 [1]
  induction of Hsp70: preferentially induces Hsp70 in MDA-MB-435 tumor cells compared to non-tumor HMEC, and HRE cells
MDA-MB-435 cells
  increase in lysis compared to cells treated with DMSO alone: about 15%
[2]
  increase in transcription of Hsp70: over 300 fold
[2]; Hs294T melanoma cells
  induction of heat shock and metallothionein genes: robustly induced heat shock and metallothionein genes
[2]; MDA-MB-435 cells
  gene expression profile (heat shock proteins, metallothioneins, antioxidants): induces an oxidative stress signature profile
Hsp70 [3]
  Hsp70 on the surface of cells: bright green color on the surface of the cells indicating Hsp70
Hsp70 [4]; 3 hours
  Hsp70 RNA expression induction: 3.9 fold
Hsp70 [4]; 6 hours
  Hsp70 RNA expression induction: 8.3 fold
MSK1
  phosphorylation of MSK1: induces the phosphorylation of MSK1 in a dose dependent manner
